The results in this text go back to ChEMBL document CHEMBL4130457, “Discovery of AZD-2098 and AZD-1678, Two Potent and Bioavailable CCR4 Receptor Antagonists” (ACS Med Chem Lett, 2017).

Data set [1] is described as follows: Lipophilicity, log P of the compound. It counts as physicochemical. Particulars: octanol/water.
A short description of data set [2]: Protein binding in human plasma. It counts as ADME, cell-free. The following applies: read-out: PPB (converted).
In data set [3] the target is T1, C-C chemokine receptor type 4 (Homo sapiens, UniProt P51679).
T1 sequence (P51679 whole entry): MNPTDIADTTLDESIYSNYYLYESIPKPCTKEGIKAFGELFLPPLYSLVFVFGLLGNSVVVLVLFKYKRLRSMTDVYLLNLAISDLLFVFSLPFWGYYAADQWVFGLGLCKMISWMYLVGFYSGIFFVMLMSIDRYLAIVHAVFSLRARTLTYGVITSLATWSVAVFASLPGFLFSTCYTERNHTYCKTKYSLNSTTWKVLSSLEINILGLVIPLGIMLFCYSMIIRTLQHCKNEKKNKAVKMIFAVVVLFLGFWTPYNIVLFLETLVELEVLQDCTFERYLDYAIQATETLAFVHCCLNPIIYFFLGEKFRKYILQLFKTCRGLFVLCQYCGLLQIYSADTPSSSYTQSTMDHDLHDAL
Nature of the data set: Antagonist activity at recombinant human CCR4 expressed in CHO-K1 cells assessed as inhibition of CCL22 induced Ca2+ mobilization after 2 hrs by FMAT based fluorescence assay. The format is functional, cell-based. Background: Calcium assays in cells follow changes in intracellular calcium, usually with a dye or a luminescent sensor.

The target in data set [4] is T2, C-C chemokine receptor type 4 (Homo sapiens) (UniProt P51679).
T2 sequence (whole entry): T1 sequence (P51679 whole entry)
Nature of the data set: Antagonist activity at recombinant human CCR4 expressed in CHO-K1 cells assessed as inhibition of CCL22 induced Ca2+ mobilization at 10 uM after 2 hrs by FMAT based fluorescence assay relative to control. It counts as functional, cell-based.

Regarding `COc1nc(C)cnc1NS(=O)(=O)c1cccc(Cl)c1Cl`, the logP in data set [1] was 3. Besides, the fraction unbound in data set [2] is 0.0035. The half-maximal inhibitory concentration (IC50) in data set [3] was 39.8 nM. Consider `O=S(=O)(Nc1ncc(Cl)nc1OCc1cccc(Br)c1)c1cccc(Cl)c1Cl`, for which the fraction unbound in data set [2] is < 0.001. Moreover, in data set [3], the IC50 was 3.98 nM.

In the case of `COc1nc(Br)cnc1NS(=O)(=O)c1cc(Cl)cc(Cl)c1`, in data set [3], the IC50 was 5010 nM. `COc1nc(Br)cnc1NS(=O)(=O)c1cccc(Cl)c1Cl`: the fraction unbound in data set [2] is < 0.001. Moreover, in data set [3], the IC50 is 10 nM.

For the compound `COc1nc(Br)cnc1NS(=O)(=O)c1c(Cl)cccc1Cl`, the IC50 in data set [3] is 631 nM. Regarding `COc1nc(CO)c(Cl)nc1NS(=O)(=O)c1cccc(Cl)c1Cl`, in data set [1], the logP is 3.2. For the same compound, the fraction unbound in data set [2] was 0.004. Further, in data set [3], the IC50 was 3.98 nM.

Take `COc1nc(S(C)(=O)=O)cnc1NS(=O)(=O)c1cccc(Cl)c1Cl`: the IC50 in data set [3] was 5010 nM. Consider `COc1nc(Br)cnc1NS(=O)(=O)c1cc(Cl)ccc1Cl`, for which, in data set [3], the 50% inhibitory concentration (IC50) was 3160 nM. For `COc1nc(Cl)cnc1NS(=O)(=O)c1cccc(F)c1Cl`, in data set [3], the IC50 is 15.8 nM. On the same count and under the same terms, the value for `COc1nc(Cl)cnc1NS(=O)(=O)c1cccc(Cl)c1C#N` was 63.1 nM. For the compound `O=S(=O)(Nc1ncc(Cl)nc1OCc1cccnc1)c1cccc(Cl)c1Cl`, the fraction unbound in data set [2] was < 0.001. Moreover, the IC50 in data set [3] is 0.631 nM. `COc1nccnc1NS(=O)(=O)c1scc(Cl)c1Cl` showed a log partition coefficient (logP) in data set [1] of 2.8. Besides, in data set [2], the fraction unbound was 0.025. The IC50 in data set [3] was 20 nM. As to `O=S(=O)(Nc1ncc(Cl)nc1OCc1cncnc1)c1cccc(Cl)c1Cl`, in data set [2], the fraction unbound was < 0.001. In data set [3], the IC50 was 12.6 nM. As for `CNc1nc(Br)cnc1NS(=O)(=O)c1ccc(Cl)s1`, the inhibition in data set [4] amounted to 44%. Besides, the IC50 in data set [3] is > 10000 nM. In data set [1], `COc1nc(CO)cnc1NS(=O)(=O)c1cccc(Cl)c1Cl` gave a logP of 2.1. The fraction unbound in data set [2] was 0.038. The IC50 in data set [3] is 25.1 nM. In turn, `COc1ncc(F)nc1NS(=O)(=O)c1cccc(Cl)c1Cl` returned a logP in data set [1] of 3.3. In addition, the fraction unbound in data set [2] was < 0.002. For the same compound, in data set [3], the IC50 was 3.98 nM.

In data set [1], `COc1nc(CO)c(C)nc1NS(=O)(=O)c1cccc(Cl)c1Cl` gave a logP of 2.4. Further, in data set [2], the fraction unbound is 0.013. Also, the half-maximal inhibitory concentration (IC50) in data set [3] is 39.8 nM. As to `COc1nc(Cl)cnc1NS(=O)(=O)c1cccc(C(F)(F)F)c1Cl`, in data set [3], the IC50 is 63.1 nM.

In the case of `COc1nc(Br)cnc1NS(=O)(=O)c1sccc1-c1ccccc1`, the IC50 in data set [3] is 1000 nM. Same read-out and setting: the value for `COc1nc(Cl)cnc1NS(=O)(=O)c1cccc(Cl)c1C` was 20 nM; that for `CC(C)(C)COc1nc(Cl)cnc1NS(=O)(=O)c1cccc(Cl)c1Cl` was 7940 nM. `COc1ncc(Cl)nc1NS(=O)(=O)c1cccc(Cl)c1Cl`: the logP in data set [1] worked out at 4.5. Moreover, the fraction unbound in data set [2] was < 0.001. In data set [3], the IC50 was 7.94 nM.

For `C#CCOc1nc(Cl)cnc1NS(=O)(=O)c1cccc(Cl)c1Cl`, in data set [3], the IC50 was 2.51 nM. Regarding `COc1nc(Br)cnc1NS(=O)(=O)c1ccccc1Cl`, the IC50 in data set [3] is 158 nM. As for `CCc1nc(Br)cnc1NS(=O)(=O)c1ccc(Cl)s1`, the IC50 in data set [3] was 5010 nM. `COc1nc(Br)cnc1NS(=O)(=O)c1cc(Cl)c(Cl)s1`: in data set [3], the IC50 was 1000 nM.

As to `CCCCS(=O)(=O)Nc1ncc(Cl)nc1OC`, the IC50 in data set [3] is 3160 nM. Turning to `COc1nc(Br)cnc1NS(=O)(=O)c1cccc(Cl)c1`, in data set [3], the IC50 was 100 nM.

For the compound `CCOc1cnc(NS(=O)(=O)c2cccc(Cl)c2Cl)c(OC)n1`, the logP in data set [1] turned out to be 4.1. Besides, the fraction unbound in data set [2] is < 0.001. For the same compound, the IC50 in data set [3] is 12.6 nM. For the compound `COc1nc(Br)cnc1NS(=O)(=O)c1sc(Cl)cc1Br`, in data set [3], the IC50 is 39.8 nM. `COc1nc(Br)cnc1NS(=O)(=O)c1ccc(Cl)cc1`: in data set [3], the IC50 was 126 nM. Same read-out and setting: under `COc1nc(Br)cnc1NS(=O)(=O)c1cccs1` stands 631 nM. Still for that read-out and setting: under `COc1nc(Cl)cnc1NS(=O)(=O)c1cccc(Cl)c1F` stands 79.4 nM; under `COc1nc(Br)cnc1NS(=O)(=O)c1ccsc1`, 1260 nM; under `C=CCOc1nc(Cl)cnc1NS(=O)(=O)c1cccc(Cl)c1Cl`, 15.8 nM. In the case of `COc1nc(Cl)cnc1NS(=O)(=O)c1scc(Cl)c1Cl`, the IC50 in data set [3] was 7.94 nM. Still for that read-out and setting: under `CSc1nc(Br)cnc1NS(=O)(=O)c1ccc(Cl)s1` stands 3160 nM. As to `COc1nc(F)c(F)nc1NS(=O)(=O)c1cccc(Cl)c1Cl`, in data set [2], the fraction unbound is < 0.002. The IC50 in data set [3] was 1 nM. Compound `COc1nc(Cl)cnc1NS(=O)(=O)c1cccc(Cl)c1Cl` registered a lipophilicity (logP) in data set [1] of 4.1. Also, the fraction unbound in data set [2] was < 0.001. As for `O=S(=O)(Nc1ncc(Cl)nc1OCc1ccccc1CO)c1cccc(Cl)c1Cl`, the fraction unbound in data set [2] was < 0.001. As to `COc1nc(Cl)cnc1NS(=O)(=O)c1ccnc(Cl)c1Cl`, the half-maximal inhibitory concentration (IC50) in data set [3] is 10000 nM. Same read-out and setting: under `COc1nc(Br)cnc1NS(=O)(=O)c1ccc(Cl)c(Cl)c1` stands 200 nM. Take `COc1ncc(C)nc1NS(=O)(=O)c1cccc(Cl)c1Cl`: in data set [2], the fraction unbound is < 0.002. Moreover, the IC50 in data set [3] was 50.1 nM. For the compound `COc1nc(Br)cnc1NS(=O)(=O)c1ccccc1`, the IC50 in data set [3] was 794 nM. For the compound `COc1nc(Br)cnc1NS(=O)(=O)c1ccc(Cl)cc1Cl`, the IC50 in data set [3] is 126 nM. Still for that read-out and setting: the value for `CCOc1nc(Br)cnc1NS(=O)(=O)c1ccc(Cl)s1` was 200 nM.

The logP is a log measure of how a compound divides between an organic and an aqueous phase. A higher logP goes with a more lipophilic compound. What is called IC50 is the concentration needed to halve the response being measured. As usually defined, the inhibition is how much of the control response was suppressed.
